EP2323645B1, “USE OF LOW-DOSE LOCAL ANAESTHETIC OR DERIVATIVES THEREOF FOR THERAPY OF CHRONIC PAIN, ESPECIALLY MIGRAINE” (priority 2008, dated 2010)

What was measured:
spinaler Nozizeptoren = test: Blockade of spinal nociceptors in healthy volunteers; type: in vivo, gesunden Probanden
From the text: Die Verabreichung des hier beschriebenen niedrig-dosierten Lidocains oder eines 3-OH-oder 4-OH-Derivats davon in den hier beschriebenen niederen Konzentrationen, z.B. in der erfindungsgemäßen pharmazeutischen Zusammensetzung, kann, insbesondere in der Migräne-Therapie, durch Infiltrations-Anästhesie stattfinden, bspw. durch gezielte, simultane Infiltrations-Anästhesien an der Schädelbasis (ventrale Äste von C1) sowie der ventralen Äste der Spinal-Nerven C2 und C3 unter Anwendung einer pharmakologisch und technisch ziel- und zweckoptimierten Methode. Unter Einsatz der erfindungsgemäßen pharmazeutischen Zusammensetzungen lassen sich die oben beschriebenen Migräne-Schmerzen sowie die Symptome einer vestibulären Dysfunktion - Übelkeit und Schwindel - unabhängig von der vorbestehenden Anfallsdauer einer Migräne spontan und definitiv abortieren. Die Konzentration des dafür verwendeten Lidocains oder eines 3-OH- oder 4-OH-Derivats davon in der erfindungsgemäßen pharmazeutischen Zusammensetzung ist bevorzugt so eingestellt, dass keine motorischen oder Sensibilitäts-Störungen auftreten.

Migräne = test: Treatment of migraine by local deep paravertebral injection of low-dose lidocaine; type: in vivo, Patienten; conditions: 0,1 Gew.-% in Ringer solution, usually 2 to 4 injections per session; within a few minutes; complete freedom from pain and complaints without typical relapse tendency
From the text: (§1) Art und Umfang der beklagten Schmerzen und Beschwerden bestimmen unter (ausschließlich) neuroanatomischen und funktionspathologischen Gesichtspunkten die ursachenorientierte Auswahl von Injektionsort, Injektionsmenge und Injektionstiefe sowie die Auswahl der verwendeten Injektionskanülen, z.B. innerhalb einer Bandbreite zwischen 20 und 100 mm Länge, bei grundsätzlich identischer, jedoch gegenüber herkömmlicher Verfahrensweise grundlegend veränderter, Injektionstechnik (siehe z.B. Figuren 1 bis 3).
(§2) Vor Behandlungsbeginn werden mit Ausnahme von Benzodiazepinderivaten sämtliche "schmerz- und beschwerdespezifische" Medikamente spontan abgesetzt. Benzodiazepinderivate werden schleichend eliminiert.
Anzahl der Injektionen und Injektionsorte sind abhängig vom aktuellen Untersuchungsbefund sowie von Patientenangaben zu Schmerzen und Beschwerden. Bevorzugt werden tiefe paravertebrale Injektionen von dorsal in antero-lateraler Stichführung in Gewebe der oberen Halswirbelsäule (s. Figur 2) oder der oberen Brustwirbelsäule (s. Figur 1) vorgenommen, je Behandlungssitzung in der Regel 2 bis 4 Injektionen.
(s. Figur 2: Einstichpunkte im Bereich der oberen und mittleren Halswirbelsäule) • Ergebnis: Der Patient war nach 2 ½ Behandlungstagen und seither dauerhaft schmerz- und beschwerdefrei.

[1] = test system: episodischer und chronischer Kopfschmerzen vom Spannungs-Typ; test: Treatment of episodic and chronic tension-type headache; type: in vivo, Patienten
From the text: as §1, §2
Behandlung: Die Anzahl der Injektionen und Injektionsorte sind abhängig vom aktuellen Untersuchungsbefund sowie von Patientenangaben zu Schmerzen und Beschwerden. Bevorzugt werden tiefe paravertebrale Injektionen in Gewebe der oberen und mittleren Halswirbelsäule vorgenommen, je Behandlungssitzung in der Regel 6 bis 8 Injektionen mit gegenüber der vorbeschriebenen Migräne-Behandlung geringerer Einstichtiefe.

[2] = test system: therapieresistenter chronischer Schulter-Arm-Schmerzen; test: Treatment of therapy-resistant chronic shoulder-arm pain; type: in vivo, Patienten; conditions: 2 to 4 deep paravertebral injections, middle cervical spine, 0,1 Gew.-%
From the text: as §1
Behandlung: 2 bis 4 tiefe, seitengleiche paravertebrale Injektionen in Gewebe der mittleren Halswirbelsäule.

chronisches LWS-Syndrom = test: Treatment of therapy-resistant chronic pain of hips, legs and feet (chronic lumbar spine syndrome); type: in vivo, Patienten; conditions: single case, patient, left-sided syndrome for 10 years, repetitive injections L3 to L5 left
From the text: as §1
Behandlung: 2 bis 4 tiefe, seitengleiche paravertebrale Injektionen in Gewebe der mittleren und unteren Lendenwirbelsäule bzw. der oberen Kreuzbeinregion (: L3 bis SI alternierend).
Aktueller Fall: • 71-jähriger Patient. Seit 10 Jahren progrediente Krankheitsentwicklung eines chronischen, linksseitigen LWS-Syndroms mit belastungsabhängigen Schmerzen und • Taubheitsgefühl in Oberschenkel und Knie sowie belastungsabhängigem, progredientem Kraftverlust des linken Beines. • Behandlung: Repetitive paravertebrale Injektionen L3 bis L5 links. • Ergebnis: Vollständige Remission aller Beschwerden nach 10 Behandlungssitzungen.

Trigeminusneuralgie = test: Treatment of trigeminal neuralgia; type: in vivo, Patienten; conditions: superficial wide-area injection of the affected nerve branch; as a rule; rarely one or two repeat injections needed
From the text: as §1
Behandlung: Oberflächliche, großflächig ausgebrachte Injektion des betroffenen Nervenastes am Ort seiner stärksten Irritation;

Occipitalisneuralgie = test: Treatment of occipital neuralgia; type: in vivo, Patienten
From the text: as §1
Behandlung: Je nach Untersuchungsbefund oberflächliche, großflächig ausgebrachte oder tiefe Injektionen des bzw. der betroffenen Nervenäste;

[3] = test system: Menstruationsbeschwerden (Menorrhagien); conditions: as a rule after two to four further identical sessions
chronischer Verletzungen = test: Treatment of chronic injuries
[4] = test system: akuter kleinflächiger Verletzungen; test: Treatment of acute small-area injuries
chronischer Migräne = test: Retrospective analysis of 84 chronic migraine patients treated with repeated deep dorsal cervico-thoracic sympathetic blocks; conditions: for Rückgang aller Schmerzen und Begleitsymptome auf: end of treatment
[5] = test system: Kopfschmerzen vom Spannungstyp; test: Comparative trial of lidocaine, mepivacaine and bupivacaine in tension-type headache (infiltration anaesthesia C1 to C3); type: in vivo, Patienten; conditions: equipotent dilution 1:5 (Lidocain 0,1 Gew.-%, Bupivacain 0,05 Gew.-%, Mepivacain 0,1 Gew.-%), twice daily for 7 days, 3 male patients, 10-point pain scale
[6] = test system: Phantom- oder Stumpfschmerz; conditions: 0,1 - 1,0 ml of 1 % solution; Gross, Anaesthesist 1985; cited from earlier work
Kopfschmerzen = conditions: 0,5 %, cervical intramuscular injection; Mellick et al. 2006; cited from earlier work
Neuralgien = conditions: 5 %; Katsushi et al.; cited from earlier work
[7] = test system: neuropathischen Schmerzen; conditions: 0.2 %, repeated epidural administration, rat model; Chiyo et al. 2008; cited from earlier work

For `CCN(CC)CC(=O)Nc1c(C)cccc1C` [Lidocain], the “Beeinträchtigung der Sensibilität” value (spinaler Nozizeptoren) was “ohne Beeinträchtigung der Sensibilität”, the Anfallsdurchbrechung (Migräne) was “vollständige Anfallsdurchbrechung” and the “Ergebnis der Repetition der Behandlung” value ([1]; repeated treatment, stepwise lengthening of pain-free intervals) was “dauerhaften Schmerzfreiheit”. For the same compound, the Sensibilitätsstörungen ([1]; typical case, 0,1 Gew.-%) was “ohne die von Injektionen mit herkömmlicher Lokalanästhetika-Konzentration bekannten Sensibilitätsstörungen”, the “Remission von Schmerzen und Beschwerden” value [2] was “Spontane Remission” and the “Vollständige Remission aller Beschwerden nach” value (chronisches LWS-Syndrom) was 10 Behandlungssitzungen. For the same compound, the Ergebnis (Trigeminusneuralgie) was “Spontan-Remission”, the “Ergebnis Tiefe Nervenäste” value (Occipitalisneuralgie; deep nerve branches, repeat injections necessary) was “eher verzögert” and the “Ergebnis oberflächliche Nervenäste” value (Occipitalisneuralgie; superficial nerve branches, as a rule, rarely one or two repeat injections) was “Spontan-Remission”. For the same compound, the “Blutungsmenge und Blutungsdauer” value [3] was “vollständige Normalisierung”, the Sensibilitätsstörungen (chronischer Verletzungen; in vivo) was “ohne Sensibilitätsstörungen” and the Remission (chronischer Verletzungen; multiple repetition at 24-hour intervals) was “schrittweisen und i.d.R. vollständigen Remission”. For the same compound, the Schmerzreduktion (chronischer Verletzungen; targeted injections into the traumatised tissue) was “spontane Schmerzreduktion”, the Sensibilitätsstörungen ([4]; in vivo) was “ohne Sensibilitätsstörungen” and the “(Wund-)Heilungsdauer” value ([4]; one or two repetitions at 24-hour intervals, as a rule) was “Halbierung der sonst üblichen (Wund-)Heilungsdauer”. For the same compound, the Schmerzfreiheit ([4]; superficial injections into the traumatised tissue) was “spontane Schmerzfreiheit”, the “Rückgang aller Schmerzen und Begleitsymptome auf” value (chronischer Migräne; 4-week treatment group (n=21)) was 3,2% and the “Rückgang aller Schmerzen und Begleitsymptome auf” value (chronischer Migräne; 5-week treatment group (n=43)) was 1,1%. The “Rückgang aller Schmerzen und Begleitsymptome auf” value (chronischer Migräne; 6-week treatment group (n=20)) was 1,0%, the “lang anhaltender therapeutischer Effekt” value (chronischer Migräne; after end of the treatment period, together with instructions on posture and lifestyle) was “mindestens einigen Jahren” and the “Rückgang der Gesamtsummen aller Schmerz-Intensitäten und Migräne-Begleitsymptome auf” value (chronischer Migräne; end of first week, all treatment periods of 4, 5 or 6 weeks, relative to last severe attack without medication, twice daily) was less than 10%. The “Kopfschmerzen vom Spannungs-Typ” value (chronischer Migräne; patients with concomitant tension-type headache) was “schrittweise bis zum Ende jeder Behandlungs-Periode beseitigt” and the Allgemeinbefinden (chronischer Migräne; under treatment) was “positive Zunahme”.

For `Cc1cccc(C)c1NC(=O)C1CCCCN1C` (centres unmarked) [Mepivacain], the “Wirkung und Therapieeffekt gegenüber Lidocain” value [5] is listed as “etwa vergleichbare Wirkung und Therapieeffekt” and the “Patienten nachweisbar effektiv behandelt” value [6] is listed as “ca. 80%”.

For `CCCCN1CCCCC1C(=O)Nc1c(C)cccc1C` (centres unmarked) [Bupivacain], the “Wirkung und Therapieeffekt gegenüber Lidocain” value [5] is listed as “etwa vergleichbare Wirkung und Therapieeffekt” and the Behandlungsergebnis (Kopfschmerzen) is listed as “erfolgreich behandelt”.

In the case of `CCCCNc1ccc(C(=O)OCCN(C)C)cc1` [Tetracain], the Behandlungsergebnis (Neuralgien) is listed as “effektive Behandlung”.

For `CCCN1CCCC[C@H]1C(=O)Nc1c(C)cccc1C` [Ropivacain], the “analgetischer Effekt” value [7] is listed as “lang anhaltenden analgetischen Effekt”.
